Experimental data as given in DBAASP.
Converted amounts (≈) assume the structure as drawn. “And” between values parts separate entries of the source, which are not always exact repeats. Equal entries are not always repeated.

Assays:
Test in all cases: ≥ marks a high value that may be exact or a test limit, other limits are often not marked, values filed in µg/mL are converted to µM
[1] = test system: Staphylococcus aureus USA 300
[2] = test system: Escherichia coli ATCC 25922
[3] = test system: Klebsiella pneumoniae ATCC 13883
[4] = test system: Pseudomonas aeruginosa PAO1
Escherichia coli JW0013 = test system: Escherichia coli JW0013
[5] = test system: Bacillus subtilis KCTC 3068
[6] = test system: Escherichia coli KCTC 1682
[7] = test system: Pseudomonas aeruginosa KCTC 1637
[8] = test system: Salmonella typhimurium KCTC 1926
[9] = test system: Staphylococcus aureus KCTC 1621
[10] = test system: Staphylococcus epidermidis KCTC 1917
[11] = test system: Bacillus subtilis ATCC 6633
[12] = test system: Enterococcus faecalis ATCC 29212
Escherichia coli UB1005 = test system: Escherichia coli UB1005
[13] = test system: Pseudomonas aeruginosa ATCC 27853
[14] = test system: Staphylococcus aureus ATCC 25923
[15] = test system: Staphylococcus epidermidis C621
Streptococcus mutans = test system: Streptococcus mutans
[16] = test system: Staphylococcus aureus ATCC 43300

CC[C@H](C)[C@H](NC(=O)[C@H](CCC(N)=O)NC(=O)[C@H](CCC(N)=O)NC(=O)[C@@H](NC(=O)[C@@H](NC(=O)[C@H](CCCN=C(N)N)NC(=O)[C@H](CCCCN)NC(=O)[C@H](Cc1ccccc1)NC(=O)CN)[C@@H](C)CC)C(C)C)C(=O)N[C@@H](CCC(N)=O)C(=O)N[C@@H](CC(=O)O)C(=O)N[C@@H](Cc1ccccc1)C(=O)N[C@@H](CC(C)C)C(=O)N[C@@H](CCCN=C(N)N)C(=O)N[C@@H](CC(N)=O)C(=O)N[C@@H](CC(C)C)C(=O)N[C@H](C(N)=O)C(C)C [GFKRIVQQIQDFLRNLV]
MIC [1]: 6.2 µM and 12.5 µM

CC(C)C[C@H](NC(=O)[C@H](C)NC(=O)[C@H](CCCCN)NC(=O)CNC(=O)[C@H](CC(C)C)NC(=O)[C@H](C)NC(=O)[C@H](CCCCN)NC(=O)[C@H](CC(C)C)NC(=O)[C@H](C)NC(=O)[C@H](CO)NC(=O)[C@H](CC(C)C)NC(=O)[C@H](CC(C)C)NC(=O)CN)C(N)=O [GLLSALKALGKAL]
MIC [2]: 25 µM (≈ 31.3 µg/mL)
MIC [3]: 25 µM (≈ 31.3 µg/mL)
MIC [4]: > 25 µM
MIC [1]: 25 µM (≈ 31.3 µg/mL)

CC[C@H](C)[C@H](NC(=O)[C@H](Cc1ccc(O)cc1)NC(=O)[C@@H](NC(=O)[C@@H]1CCCN1C(=O)[C@H](CCCCN)NC(=O)[C@H](CC(N)=O)NC(=O)[C@H](CC(N)=O)NC(=O)CN)C(C)C)C(=O)N1CCC[C@H]1C(=O)N[C@@H](CCC(N)=O)C(=O)N1CCC[C@H]1C(=O)N[C@@H](CCCN=C(N)N)C(=O)N1CCC[C@H]1C(=O)N1CCC[C@H]1C(=O)N[C@@H](Cc1cnc[nH]1)C(=O)N1CCC[C@H]1C(=O)N[C@@H](CCCN=C(N)N)C(=O)N[C@@H](CC(C)C)C(=O)O [GNNKPVYIPQPRPPHPRL]
MIC (Escherichia coli JW0013): 0.3 µM (≈ 0.624 µg/mL)

CC(C)C[C@H](NC(=O)[C@H](CCCCN)NC(=O)[C@H](CCCCN)NC(=O)[C@H](CC(C)C)NC(=O)[C@H](CC(C)C)NC(=O)[C@H](CCCCN)NC(=O)[C@H](CCCCN)NC(=O)[C@H](CC(C)C)NC(=O)[C@H](CCCCN)NC(=O)[C@H](CCCCN)NC(=O)[C@H](CCCN=C(N)N)NC(=O)[C@H](CC(C)C)NC(=O)[C@H](CCCN=C(N)N)NC(=O)[C@H](CCCCN)NC(=O)[C@H](CC(C)C)NC(=O)[C@H](CCCN=C(N)N)NC(=O)CN)C(=O)N[C@@H](CO)C(N)=O [GRLKRLRKKLKKLLKKLS]
MIC [5]: 4 µM (≈ 8.82 µg/mL)
MIC [6]: 8 µM (≈ 17.6 µg/mL)
MIC [7]: 4 µM (≈ 8.82 µg/mL)
MIC [8]: 2 µM (≈ 4.41 µg/mL)
MIC [9]: 4 µM (≈ 8.82 µg/mL)
MIC [10]: 8 µM (≈ 17.6 µg/mL)

CC(C)C[C@H](NC(=O)[C@H](Cc1ccc(O)cc1)NC(=O)[C@H](Cc1cnc[nH]1)NC(=O)[C@@H](NC(=O)[C@H](CC(C)C)NC(=O)[C@H](C)NC(=O)[C@H](C)NC(=O)[C@H](CCCCN)NC(=O)[C@H](C)NC(=O)[C@@H](NC(=O)[C@H](Cc1cnc[nH]1)NC(=O)[C@H](CCCCN)NC(=O)CNC(=O)[C@@H](NC(=O)[C@H](Cc1cnc[nH]1)NC(=O)[C@H](C)NC(=O)[C@H](C)NC(=O)[C@H](CCCCN)NC(=O)[C@H](CCCCN)NC(=O)[C@H](Cc1ccccc1)NC(=O)[C@H](Cc1ccccc1)NC(=O)[C@H](CO)NC(=O)CNC(=O)[C@H](Cc1c[nH]c2ccccc12)NC(=O)CN)C(C)C)C(C)C)[C@@H](C)O)C(=O)O [GWGSFFKKAAHVGKHVAKAALTHYL]
MIC [5]: 2 µM (≈ 5.45 µg/mL)
MIC [6]: 2 µM (≈ 5.45 µg/mL)
MIC [7]: 2 µM (≈ 5.45 µg/mL)
MIC [8]: 2 µM (≈ 5.45 µg/mL)
MIC [9]: 1 µM (≈ 2.73 µg/mL)
MIC [10]: 1 µM (≈ 2.73 µg/mL)

CC[C@H](C)[C@H](N)C(=O)N[C@@H](CC(C)C)C(=O)N[C@@H](CCCCN)C(=O)N[C@@H](CC(C)C)C(=O)N[C@@H](Cc1ccccc1)C(=O)N[C@@H](CCCCN)C(=O)N[C@@H](CCCN=C(N)N)C(=O)N[C@H](C(=O)N[C@H](C(=O)N[C@@H](CCCCN)C(=O)N[C@@H](CCCN=C(N)N)C(=O)N[C@H](C(=O)N[C@@H](CC(C)C)C(=O)N[C@@H](CCCCN)C(=O)N[C@@H](Cc1ccccc1)C(=O)N[C@@H](CC(C)C)C(=O)N[C@@H](CCCN=C(N)N)C(=O)N[C@@H](CCCCN)C(=O)N[C@@H](CC(C)C)C(=O)O)[C@@H](C)CC)C(C)C)[C@@H](C)CC [ILKLFKRIVKRILKFLRKL]
MIC [5]: 4 µM (≈ 9.7 µg/mL)
MIC [6]: 8 µM (≈ 19.4 µg/mL)
MIC [7]: 8 µM (≈ 19.4 µg/mL)
MIC [8]: 8 µM (≈ 19.4 µg/mL)
MIC [9]: 8 µM (≈ 19.4 µg/mL)
MIC [10]: 4 µM (≈ 9.7 µg/mL)

C[C@H](NC(=O)[C@H](C)NC(=O)[C@H](Cc1c[nH]c2ccccc12)NC(=O)[C@H](C)NC(=O)[C@H](C)NC(=O)[C@H](Cc1c[nH]c2ccccc12)NC(=O)[C@H](C)NC(=O)[C@H](C)NC(=O)[C@H](Cc1c[nH]c2ccccc12)NC(=O)[C@H](C)NC(=O)[C@H](C)NC(=O)[C@H](CCCCN)NC(=O)[C@H](CCCCN)NC(=O)[C@H](CCCCN)NC(=O)[C@H](CCCCN)NC(=O)[C@H](CCCCN)NC(=O)[C@@H](N)CCCCN)C(N)=O [KKKKKKAAWAAWAAWAA]
MIC [11]: 4 µM (≈ 7.65 µg/mL)
MIC [12]: > 32 µM
MIC [2]: 8 µM (≈ 15.3 µg/mL)
MIC (Escherichia coli UB1005): 1 µM (≈ 1.91 µg/mL)
MIC [13]: 8 µM (≈ 15.3 µg/mL)
MIC [14]: 32 µM (≈ 61.2 µg/mL)
MIC [15]: 8 µM (≈ 15.3 µg/mL)

CC(C)C[C@H](NC(=O)[C@@H](NC(=O)[C@H](CCCN=C(N)N)NC(=O)[C@H](CCCCN)NC(=O)[C@@H](NC(=O)[C@H](CCCCN)NC(=O)[C@H](CCC(N)=O)NC(=O)[C@H](C)NC(=O)[C@H](CC(C)C)NC(=O)[C@@H](N)CCCCN)C(C)C)C(C)C)C(=O)N[C@@H](CCCN=C(N)N)C(=O)O [KLAQKVKRVLR]
MIC (Streptococcus mutans): ≥ 93.4 µM

CC[C@H](C)[C@H](NC(=O)[C@H](CCCCN)NC(=O)[C@@H]1CCCN1C(=O)[C@H](CC(C)C)NC(=O)[C@@H](N)CCCCN)C(=O)N[C@@H](Cc1c[nH]c2ccccc12)C(=O)N[C@@H](Cc1c[nH]c2ccccc12)C(=O)N[C@H](C(=O)N[C@@H](CCCCN)C(=O)N[C@H](C(=O)N1CCC[C@H]1C(=O)N[C@@H](CCCCN)C(N)=O)C(C)C)[C@@H](C)CC [KLPKIWWIKVPK]
MIC [5]: 4.07 µM (≈ 6.25 µg/mL)
MIC [6]: 8.14 µM (≈ 12.5 µg/mL)
MIC [7]: 4.07 µM (≈ 6.25 µg/mL)
MIC [8]: 4.07 µM (≈ 6.25 µg/mL)
MIC [9]: 8.14 µM (≈ 12.5 µg/mL)
MIC [10]: 4.07 µM (≈ 6.25 µg/mL)

CC[C@H](C)[C@H](NC(=O)[C@H](CC(C)C)NC(=O)[C@@H](N)CC(C)C)C(=O)N[C@H](C(=O)N[C@@H](CC(C)C)C(=O)N[C@@H](CCCN=C(N)N)C(=O)N[C@@H](CCCN=C(N)N)C(=O)N[C@@H](CCCN=C(N)N)C(=O)N[C@@H](Cc1c[nH]c2ccccc12)C(=O)N[C@@H](CCCN=C(N)N)C(=O)N[C@@H](CCCCN)C(=O)N[C@@H](CCC(N)=O)C(=O)N[C@@H](C)C(=O)N[C@@H](CCCCN)C(=O)N[C@@H](C)C(=O)N[C@@H](CCCCN)C(=O)N[C@@H](CO)C(=O)N[C@@H](CCCCN)C(N)=O)[C@@H](C)CC [LLIILRRRWRKQAKAKSK]
MIC [5]: 4 µM (≈ 9.06 µg/mL)
MIC [6]: 8 µM (≈ 18.1 µg/mL)
MIC [7]: 8 µM (≈ 18.1 µg/mL)
MIC [8]: 4 µM (≈ 9.06 µg/mL)
MIC [9]: 4 µM (≈ 9.06 µg/mL)
MIC [10]: 8 µM (≈ 18.1 µg/mL)

NCCCC[C@H](NC(=O)[C@H](Cc1c[nH]c2ccccc12)NC(=O)[C@H](Cc1c[nH]c2ccccc12)NC(=O)[C@H](CCCCN)NC(=O)[C@H](CCCN=C(N)N)NC(=O)[C@H](CCCN=C(N)N)NC(=O)[C@@H](N)CCCN=C(N)N)C(=O)O [RRRKWWK]
MIC (Streptococcus mutans): ≥ 224 µM

NC(N)=NCCC[C@H](NC(=O)[C@H](CCCN=C(N)N)NC(=O)[C@H](CCCN=C(N)N)NC(=O)[C@@H](N)CCCN=C(N)N)C(=O)N[C@@H](Cc1c[nH]c2ccccc12)C(=O)N[C@@H](Cc1c[nH]c2ccccc12)C(=O)N[C@@H](Cc1c[nH]c2ccccc12)C(=O)O [RRRRWWW]
MIC [4]: 125 µM (≈ 150 µg/mL)
MIC [16]: 125 µM (≈ 150 µg/mL)
MIC (Streptococcus mutans): 13.3 µM (≈ 16 µg/mL)

C[C@H](NC(=O)[C@H](CO)NC(=O)[C@H](C)NC(=O)[C@H](Cc1ccccc1)NC(=O)[C@H](Cc1c[nH]c2ccccc12)NC(=O)[C@H](CCCN=C(N)N)NC(=O)[C@H](Cc1c[nH]c2ccccc12)NC(=O)[C@H](CCCN=C(N)N)NC(=O)[C@H](Cc1c[nH]c2ccccc12)NC(=O)[C@@H](N)CCCN=C(N)N)C(=O)N[C@@H](CO)C(=O)N[C@@H](C)C(=O)N[C@@H](CCCN=C(N)N)C(=O)N[C@@H](Cc1c[nH]c2ccccc12)C(=O)N[C@@H](CCCN=C(N)N)C(=O)N[C@@H](Cc1c[nH]c2ccccc12)C(=O)N[C@@H](CCCN=C(N)N)C(=O)N[C@@H](Cc1c[nH]c2ccccc12)C(=O)N[C@@H](Cc1ccccc1)C(N)=O [RWRWRWFASASARWRWRWF]
MIC (Streptococcus mutans): 5.81 µM (≈ 16 µg/mL)

CC[C@H](C)[C@H](NC(=O)[C@H](CC(N)=O)NC(=O)[C@H](CCCCN)NC(=O)[C@H](CC(C)C)NC(=O)[C@H](CO)NC(=O)[C@H](CCC(N)=O)NC(=O)[C@H](CC(C)C)NC(=O)[C@@H](NC(=O)[C@@H](N)[C@@H](C)O)[C@@H](C)CC)C(=O)N[C@@H](Cc1ccccc1)C(=O)N[C@@H](CCCCN)C(=O)O [TILQSLKNIFK]
MIC (Streptococcus mutans): ≥ 95.8 µM
